Measurements reported in US10398315B2, “Method of imaging living tissue” (Agency for Science, Technology and Research, priority 2013, dated 2019).
Entries after “also recorded” stand apart in the source; their conditions may differ.

Legend:
[1] = Concentration of drug in the blood calculated from pre-clinical in vivo dose from literature; details: assuming volume of blood in mice 2 ml
[2] = In vivo longitudinal MSOT monitoring of probe biodistribution in mouse xenograft model; details: 0.21 mg/kg tail vein; for time of peak accumulation post injection: tumor site and organs
Procedure: For in vivo imaging, ultrasound gel was applied on the mouse skin surface, and measurements were recorded in temperature-controlled water for good acoustic coupling. An animal holder with a thin polyethylene membrane was used to prevent direct contact between the mouse and the water.
Xenograft mice models were established by injecting subcutaneously into the right flank of mouse, 0.2 mL of cell suspension containing about 5×10^6 to 6×10^6 MCF-7, a human metastatic breast cancer cell line or OSCC, a human oral squamous carcinoma cell line and matrigel (BD biosciences) in 1:1 volume ratio. When the tumor volume reached a palpable size, the mouse was used for in vivo PA imaging.
ZnPc at a dosage of 0.21 mg/kg was injected via a catheter into the tail vein of a subcutaneous tumor bearing mice anaesthetized under isoflurane and the probe biodistribution or uptake was monitored over time in various organs of liver, spleen, kidneys, intestines and tumor using photoacoustic imaging. Before image acquisition, a volume ROI consisting of transverse slices with a step size of 0.3 mm spanning from the liver to the lower abdomen was selected by manual inspection of live MSOT images, and the 6 laser excitation wavelengths of 680, 700, 750, 800, 850 and 900 nm were selected for correspondence with the major turning points in the absorption spectra of ZnPc, oxy-haemoglobin and deoxy-haemoglobin. Multispectral imaging was then performed with 10 signal averages per wavelength per transverse slice, before injection, during injection and 1, 3, 5, and 24 hr post-injection.
Images were reconstructed using a model-based approach as discussed in Rosenthal, A. et al. (Rosenthal, A. et al., Fast semi-analytical model-based acoustic inversion for quantitative optoacoustic tomography. IEEE Trans. Med. Imag. 29, 1275-1285 (2010)) for offline analysis. After image reconstruction, spectral unmixing was performed to resolve individual components from different chromophores in the system. For each pixel in the image, the method fits the total measured optoacoustic spectrum to the known absorption spectra of the individual chromophores, based on least-squares linear regression.
A volume ROI consisting of transverse slices spanning from the liver to the lower abdomen was scanned, and maximum intensity projections (MIPs) based on these slices were constructed for image analysis.
For the later time points, this background subtraction was not possible, as the animal was removed and placed in the MSOT system repeatedly, with repositioning, in order to avoid overdosage of isoflurane for the entire 24-hour duration.

[3] = literature value; cited from earlier work
[4] = UV absorbance measurement 680-900 nm; type: physicochemical; details: 680 nm to 900 nm, normalized absorbance, compared among the 5 photosensitizers
Procedure: In order to obtain information about optical absorption properties of the contrast agents, their wavelength-dependent absorption spectra at known concentrations were measured using a spectrophotometer.
In the experiments carried out, wavelength-dependent absorption spectrum of the contrast agents was measured from 680 nm to 900 nm using a spectrophotometer (DU 730, Beckman Coulter), which in turn was used as an input spectrum for multispectral post-processing of photoacoustic signals.
The spectra were normalized to obtain the concentration-independent normalized absorbance (directly proportional to extinction coefficient) as a function of wavelength for each contrast agent (FIG. 1), based on Beer-Lambert law: A(λ)=ln(Io/I)=ε(λ)cl
where A(λ) is the measured wavelength-dependent absorbance, I0 is the incident light intensity, I is the transmitted light intensity, ε(2) is the wavelength-dependent extinction coefficient of the contrast agent, c is the concentration of the contrast agent and l is the path length of the quartz cuvette (1 cm).

[5] = literature value; cited from earlier work; remark: listed apart in the source
[6] = MSOT phantom measurement of photoacoustic signal; type: physicochemical; details: 680-900 nm; for Relative PA Quantum yield (ϕP): gradient of unmixed PA signal vs concentration in phantom, arbitrary ratios; for PA signal / photoacoustic activity in phantoms: phantom, compared among the 5 photosensitizers
Procedure: In order to verify the PA activity of the photosensitizers under controlled conditions, phantom measurements for all the contrast agents were performed, in the 680-900 nm wavelength range, each at 5 different concentrations.
All phantom and in vivo mouse imaging experiments were performed using a real-time multispectral optacoustic tomographic (MSOT) imaging system; inVision 128 (iThera Medical GmbH, Neuherberg, Germany).
The phantom was made of polyurethane, cylindrical in shape with a diameter of 2 cm, which was specially designed to mimic the shape, size and optical properties of the mouse (iThera Medical GmbH, Neuherberg, Germany). In addition, it had 2 inner cylindrical channels, each with diameter of 3 mm, one for holding the control medium and the other for holding the dissolved contrast agent in the same medium, to measure PA signal compared to the control medium, as shown in FIG. 2A.
Optical excitation was provided by an optical parametric oscillator (OPO) with a tunable near infra-red (NIR) wavelength range from 680 nm to 980 nm, which is in turn pumped by a Q-switched Nd:YAG laser with a pulse duration of 10 ns and repetition rate of 10 Hz. Light was delivered by a fiber bundle divided into 10 output arms to illuminate the sample from multiple angles around the imaging plane.
Photoacoustic (PA) signals were acquired using a 128-element concave transducer array spanning a circular arc of 270°. […] One transverse image slice was acquired from each laser pulse, resulting in a frame-rate of 10 Hz.
During image acquisition, the sample is translated through the transducer array along its axis across the volume ROI, in order to capture the corresponding transverse image slices. Data from multiple transverse slices across the channel portion which contains the probe and control were recorded. Excitation wavelength scan from 680 to 900 nm with an interval of 10 nm for each transverse slice was applied, and the averaged PA signals from 10 frames for each wavelength and position were recorded.
In addition, PA signal for each contrast agent was spectrally unmixed via linear regression. This allowed isolation of the individual contribution of the contrast agent of interest that may be plotted as a function of concentration, which in turn was used to produce a straight line of best fit based on least-squares regression, for each contrast agent.
This gradient was thereby defined by the inventors as a form of relative PA quantum yield (ϕP), a kind of measure of the efficiency of the conversion of light absorption into photoacoustic signal. This is analogous to fluorescence quantum yield (ϕ), which measures efficiency of the conversion of light absorption into fluorescence emission.
The numbers shown are not absolute values, but arbitrary ratios, which reflect the relative PA strength of one compound against that of another.

In the case of `C=CC1=C(C)c2cc3[nH]c(cc4nc(cc5[nH]c(cc1n2)c(C)c5CCC(=O)O)C(CCC(=O)O)=C4C)c(C)c3C=C` [PpIX, protoporphyrin IX], the “Concentration of drug in the blood” value [1] was 88.88 µM.

With `[Zn+2].c1ccc2c(c1)-c1nc-2nc2[n-]c(nc3nc([n-]c4nc(n1)-c1ccccc1-4)-c1ccccc1-3)c1ccccc21` [ZnPc, zinc phthalocyanine] the “tmax, time of peak concentrations” value ([2]; MIPs t=10 to 60 mins) was 1 h, the time to clearance ([2]; MSOT signal) was at most 24 h and the “organ biodistribution of MSOT signal” value ([2]; liver, spleen, kidneys, intestines, tumor) was “strong in vivo MSOT signal of ZnPc was detected in the reticuloendothelial system (liver, spleen), intestines and tumor site within the first hour after injection; also recorded: high concentrations were found in the liver and intestines up to the 3-hour time point, whereas renal signal was much weaker in comparison”. For the same molecule, the “time of peak tumor-to-muscle ratio of MSOT signal” value ([2]; n=4) was 1 h, the “time to localization at the tumor post injection” value ([2]; tumor bearing mice) was at most 10 min and the “time of peak accumulation post injection” value [2] was 1 h. The “time of peak accumulation post injection” value ([2]; listed as zinc phthalocyanine) was “around 1 hour”, the “Concentration of drug in the blood” value [1] was 3.63 µM and the “Fluorescence Quantum Yield (ϕF)” value [3] was 0.06 [23]. The “overall absorbance in the NIR region” value [4] was “highest overall absorbance”, the “Singlet Oxygen Quantum Yield (ϕΔ)” value [5] was 0.62 [23] and the “Relative PA Quantum yield (ϕP)” value ([6]; listed as zinc pthalocyanine) was “highest relative photoacoustic quantum yield”. The “PA signal / photoacoustic activity in phantoms” value [6] was “strongest PA signal in phantoms”, the “PA signal / photoacoustic activity in phantoms” value ([6]; listed as zinc phthalocyanine) was “highest photoacoustic activity” and the “PA signal / photoacoustic activity in phantoms” value ([6]; listed as zinc pthalocyanine) was “strongest photoacoustic signal”.

For `CN(C)c1ccc2nc3ccc(=[N+](C)C)cc-3sc2c1` [MB, methylene blue], the “Concentration of drug in the blood” value [1] is given as 1337.00 µM, the “Fluorescence Quantum Yield (ϕF)” value [3] is given as 0.02 [23] and the “Singlet Oxygen Quantum Yield (ϕΔ)” value [5] is given as 0.55 [23]. For the same molecule, the “Relative PA Quantum yield (ϕP)” value [6] was 0.029.

In the case of `O=C1C(=C2C(O)=CC(=[N+](Cc3ccccc3)Cc3ccccc3)C=C2O)C([O-])=C1c1c(O)cc(N(Cc2ccccc2)Cc2ccccc2)cc1O` [Sq, 2,4-bis[4-(N,N-dibenzylamino)-2,6-dihydroxyphenyl]squaraine], the “Concentration of drug in the blood” value [1] is given as 181.40 µM, the “Fluorescence Quantum Yield (ϕF)” value [3] is given as 0.037 [27] and the “Singlet Oxygen Quantum Yield (ϕΔ)” value [5] is given as 0.61-0.74 [28]. For the same molecule, the “Relative PA Quantum yield (ϕP)” value [6] was 0.18.

For chlorin e6 [Ce6], the “Concentration of drug in the blood” value [1] is given as 41.90 µM, the “Fluorescence Quantum Yield (ϕF)” value [3] is given as 0.19 [23] and the “Singlet Oxygen Quantum Yield (ϕΔ)” value [5] is given as 0.65 [23]. The “Relative PA Quantum yield (ϕP)” value [6] was 0.036.
